Target: T1, TthMutS (Thermus thermophilus, UniProt Q56239)
T1 construct: gene mutS; N-terminal His-tag translational fusion, tag kept; expressed in E. coli BL21(DE3)pLysS; IMAC purified; immobilized on nickel plate; 92 kDa monomer (stated for MutS generally)
T1 sequence (Q56239 2-819): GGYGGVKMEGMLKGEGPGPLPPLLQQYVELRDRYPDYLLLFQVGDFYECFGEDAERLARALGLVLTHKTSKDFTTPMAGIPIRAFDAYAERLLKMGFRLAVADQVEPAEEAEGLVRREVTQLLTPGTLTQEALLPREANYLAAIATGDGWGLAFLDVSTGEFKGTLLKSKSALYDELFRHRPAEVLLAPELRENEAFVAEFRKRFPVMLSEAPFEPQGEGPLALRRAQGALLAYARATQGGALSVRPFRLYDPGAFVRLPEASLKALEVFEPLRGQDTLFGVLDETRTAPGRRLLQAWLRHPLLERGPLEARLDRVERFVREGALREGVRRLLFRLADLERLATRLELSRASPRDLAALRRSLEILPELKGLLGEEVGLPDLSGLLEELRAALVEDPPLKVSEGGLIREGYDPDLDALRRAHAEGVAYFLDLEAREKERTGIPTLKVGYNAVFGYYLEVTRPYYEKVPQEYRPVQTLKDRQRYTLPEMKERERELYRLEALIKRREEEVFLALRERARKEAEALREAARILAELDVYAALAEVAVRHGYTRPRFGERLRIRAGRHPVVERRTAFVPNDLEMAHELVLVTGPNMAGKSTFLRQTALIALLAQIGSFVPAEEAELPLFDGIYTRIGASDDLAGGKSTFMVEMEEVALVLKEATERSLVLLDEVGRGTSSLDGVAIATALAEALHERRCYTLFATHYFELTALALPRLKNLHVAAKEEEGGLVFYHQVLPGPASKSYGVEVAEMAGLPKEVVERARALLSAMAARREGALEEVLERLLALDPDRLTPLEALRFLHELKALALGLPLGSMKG
Experiment: colorimetric nickel-plate DNA mismatch binding assay (A620)
Format: biochemical
Conditions: 1 mM ADP; 300 mM salt (PBSx2); room temperature; immobilized his-tagged protein; modulator of TG49 mismatch versus TA49 DNA binding

Which “colorimetric nickel-plate DNA mismatch binding assay (A620)” value does the source give for Nc1ncnc2c1ncn2[C@@H]1O[C@H](COP(=O)(O)OP(=O)(O)O)[C@@H](O)[C@H]1O [ADP] here?
Its value is “In the presence of ADP, the specificity of MutS from T. thermophilus strongly increased”.

Reference: article PMC4992025, “A Colorimetric Microplate Assay for DNA-Binding Activity of His-Tagged MutS Protein” (Molecular Biotechnology, 2016)
